We go through two molecules from patent publication US8476253B2, “Amide derivative” (Daiichi Sankyo Company, Limited, priority 2009, dated 2013).

Structures can show the parent of a compound that is named as a salt. Where two headings read alike, the source gives them in different places.

One assay has as its target T1, human M3 receptor (Homo sapiens, UniProt P20309).
T1 construct: expressed in transfected cells; host or cells: CHO cells
Description: Test for binding to human M3 receptor. The method, boiled down: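 CHO-cell crude membranes expressing human M3 were incubated with [N-methyl-3H]-(−)-scopolamine methyl chloride in 50 mM Tris-HCl, 0.5 mM EDTA, pH 7.4, for 60 min at room temperature. Bound ligand was collected on PEI-pretreated glass-fibre filters and counted by liquid scintillation. Ki was calculated from IC50 and the radioligand Kd.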

The next assay addresses T2, human NK2 receptor (Homo sapiens, UniProt P21452).
T2 construct: expressed in transfected cells; host or cells: COS cells
T2 sequence (P21452 1-398): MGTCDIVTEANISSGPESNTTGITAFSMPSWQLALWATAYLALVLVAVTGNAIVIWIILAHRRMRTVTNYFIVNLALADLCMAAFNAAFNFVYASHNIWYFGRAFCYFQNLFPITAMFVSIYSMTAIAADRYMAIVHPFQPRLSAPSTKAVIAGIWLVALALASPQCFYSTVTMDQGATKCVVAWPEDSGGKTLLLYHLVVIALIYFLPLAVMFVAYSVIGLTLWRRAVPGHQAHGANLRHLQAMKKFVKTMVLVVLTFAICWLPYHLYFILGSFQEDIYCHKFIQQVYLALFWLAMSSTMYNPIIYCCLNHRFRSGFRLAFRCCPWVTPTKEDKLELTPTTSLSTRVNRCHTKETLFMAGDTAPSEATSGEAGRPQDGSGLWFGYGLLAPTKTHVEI
The assay can be described thus: Test for binding to human NK2 receptor. The essentials:
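Radioligand binding with [^3H]SR 48968 on cryopreserved COS cells expressing human NK2 receptor (5.0×10^5 cells/mL), in 50 mM Tris-HCl pH 7.4 with BSA, MnCl2 and protease inhibitors. Bound label collected on PEI-treated GF/B filters, counted by liquid scintillation; Ki derived from IC50 and radioligand Kd.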

The next assay deals with T3, neurokinin NK1 receptor (Cavia porcellus, UniProt P30547).
T3 construct: Using healthy guinea pigs (body weight, 350 to 550 g; Hartley male guinea pigs); from tissue; host or cells: live anaesthetised Hartley male guinea pigs (airway, in vivo)
T3 sequence (P30547 whole entry): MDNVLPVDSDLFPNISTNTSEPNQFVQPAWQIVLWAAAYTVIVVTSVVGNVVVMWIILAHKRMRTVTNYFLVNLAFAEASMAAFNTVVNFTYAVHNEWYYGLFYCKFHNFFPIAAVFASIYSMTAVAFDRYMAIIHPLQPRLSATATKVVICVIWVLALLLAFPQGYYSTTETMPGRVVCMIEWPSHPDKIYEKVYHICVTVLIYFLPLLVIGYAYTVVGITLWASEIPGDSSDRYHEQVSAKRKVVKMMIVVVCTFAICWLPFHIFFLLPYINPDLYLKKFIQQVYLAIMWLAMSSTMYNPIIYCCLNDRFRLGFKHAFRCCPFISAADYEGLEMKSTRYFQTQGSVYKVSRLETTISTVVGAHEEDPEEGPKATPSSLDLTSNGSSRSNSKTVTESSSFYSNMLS
Description: Effect of suppressing substance P-induced airway contraction (in vivo, intratracheal administration). More on the design: species or system guinea pig. As to conditions: guinea pig; guinea pigs, intratracheal administration 60 minutes before 20 μg/kg i.v. SP; AUC of increase in airway pressure over 10 minutes; read-out: ID50 (the source's name). The essentials: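 Anaesthetised, gallamine-paralysed, ventilated male Hartley guinea pigs; compound in 5% glucose given intratracheally 60 min before 20 μg/kg i.v. substance P. Airway-pressure increase AUC over 10 min, inhibition versus vehicle group, expressed as ID50.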

A further assay has as its target T4, substance P receptor (Cavia porcellus, UniProt P30547).
T4 construct: A preparation of a crude lung membrane sample was prepared; from tissue; host or cells: guinea-pig lung (crude membrane sample)
Description: Test for binding to guinea-pig substance P receptor (crude lung membrane sample). As to conditions: crude guinea-pig lung membrane sample, [3H]substance P; Ki from IC50 and Kd; read-out: Ki. On the procedure:
A preparation of a crude lung membrane sample was prepared, and a test for binding of a test substance to the sample was performed according to the method described in EP0336230A2.
The binding effect of the test substance to a substance P receptor was calculated as an affinity (Ki) of the test substance for the substance P receptor from a 50% binding concentration (IC50) and an affinity (Kd) of [^3H]substance P for the substance P receptor.

T4 sequence (P30547 whole entry): as above
T1 sequence (P20309 whole entry): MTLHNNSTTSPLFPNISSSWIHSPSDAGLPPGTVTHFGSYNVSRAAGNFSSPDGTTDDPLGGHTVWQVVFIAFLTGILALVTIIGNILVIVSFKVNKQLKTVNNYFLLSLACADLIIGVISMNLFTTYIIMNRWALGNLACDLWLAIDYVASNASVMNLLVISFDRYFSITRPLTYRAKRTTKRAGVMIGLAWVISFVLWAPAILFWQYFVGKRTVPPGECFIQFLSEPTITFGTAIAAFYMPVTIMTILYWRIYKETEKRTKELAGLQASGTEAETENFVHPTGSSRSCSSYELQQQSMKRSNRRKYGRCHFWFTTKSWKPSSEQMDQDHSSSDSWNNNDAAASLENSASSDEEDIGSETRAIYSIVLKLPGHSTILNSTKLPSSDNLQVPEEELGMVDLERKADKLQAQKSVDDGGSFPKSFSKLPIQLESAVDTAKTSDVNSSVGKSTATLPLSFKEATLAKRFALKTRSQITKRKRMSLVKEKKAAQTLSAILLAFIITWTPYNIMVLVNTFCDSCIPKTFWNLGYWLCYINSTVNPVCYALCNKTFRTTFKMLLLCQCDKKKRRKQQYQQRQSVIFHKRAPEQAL

Turning to `CN(CCN1CCC(OC(=O)Nc2ccccc2-c2ccccc2)CC1)C(=O)CCCNc1ccc(C(=O)N(C)CCCN(C)C(=O)CO[C@H]2Cc3ccccc3C23CCN(CC[C@@]2(c4ccc(F)cc4)CN(C(=O)c4cc(C(F)(F)F)cc(C(F)(F)F)c4)CO2)CC3)cc1` [Example 34, 1-(2-{[4-({4-[{3-[({[(2S)-1′-{2-[(5R)-3-[3,5-Bis(trifluoromethyl)benzoyl]-5-(4-fluorophenyl)-1,3-oxazolidin-5-yl]ethyl}-2,3-dihydrospiro[indene-1,4′-piperidin]-2-yl]oxy}acetyl)(methyl)amino]propyl}(methyl)carbamoyl]phenyl}amino)butanoyl](methyl)amino}ethyl)piperidin-4-yl biphenyl-2-ylcarbamate trihydrochloride], the Ki – broadly, the dissociation constant of the complex between target and ligand, obtained from inhibition or displacement – stood at 1.5 nM on human M3 receptor, 0.54 nM on human NK2 receptor and 1 nM on substance P receptor. Further, the ED50 at neurokinin NK1 receptor stood at 0.0308 mg/kg.
Turning to `CN(CCN1CCC(OC(=O)Nc2ccccc2-c2ccccc2)CC1)C(=O)CCNc1ccc(C(=O)N(C)CCCN(C)C(=O)CO[C@H]2Cc3ccccc3C23CCN(CC[C@@]2(c4ccc(F)cc4)CN(C(=O)c4cc(C(F)(F)F)cc(C(F)(F)F)c4)CO2)CC3)cc1` [Example 94, 1-{2-[(N-{4-[{3-[({[(2S)-1′-{2-[(5R)-3-[3,5-Bis(trifluoromethyl)benzoyl]-5-(4-fluorophenyl)-1,3-oxazolidin-5-yl]ethyl}-2,3-dihydrospiro[indene-1,4′-piperidin]-2-yl]oxy}acetyl)(methyl)amino]propyl}(methyl)carbamoyl]phenyl}-β-alanyl)(methyl)amino]ethyl}piperidin-4-yl biphenyl-2-ylcarbamate], the Ki on human M3 receptor (CHO cells expressing human M3 receptor, [N-methyl-3H]-(-)-Scopolamine methyl chloride 0.5 nM, Ki from IC50 and Kd, read-out: Ki) was determined as 2 nM; at human NK2 receptor (COS cells expressing human NK2 receptor, [3H]SR 48968 1 nM, Ki from IC50 and Kd, read-out: Ki), 0.75 nM; on substance P receptor, 0.81 nM. The ED50 at neurokinin NK1 receptor is 0.0087 mg/kg.
